From ChEMBL document CHEMBL1132471, “Vancomycin binding to low-affinity ligands: delineating a minimum set of interactions necessary for high-affinity binding” (J Med Chem, 1999) come the findings set out here.

The first experiment in a line: Affinity for Vancomycin (Exp I).
`CC(=O)O[C@H](C)C(=O)O` displayed an Affinity of 40 M⁻¹.
`CC(=O)O`: the Affinity was determined as 15 M⁻¹.

The nature of another experiment: Affinity for Vancomycin (Exp II).
In turn, `CC(=O)O` returned an Affinity of 30 M⁻¹.
The molecule `C[C@@H](O)C(=O)O` had an Affinity of 80 M⁻¹.
On the same count and under the same terms, under `CC(=O)N[C@H](C)C(=O)O` stands 300 M⁻¹; under `CC(=O)NCC(=O)O`, 80 M⁻¹.
